These results are taken from patent publication US20240300980A1, “HETEROCYCLIC COMPOUNDS AS KRAS INHIBITOR, AND PREPARATION THEREFOR AND USE THEREOF IN TREATMENT” (SHANGHAI KECHOW PHARMA, INC., priority 2021, published 2024).

The test system of the first experiment is AGS cells (KRAS^G12D). The experiment in a line: Detection of cell proliferation in vitro by MTT/MTS method (cell activity experiment). The following applies: AGS cells; MTT/MTS; 3 days of drug treatment; read-out: AGS IC50. The format is cell-based. In short, it runs like this:
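After 3-day compound exposure (final DMSO 0.5%), viability of AGS (KRAS G12D) cells, plated 1000/well one day before dosing, was measured at 490 nm following 4 h MTT or MTS incubation. IC50 was fitted from dose–effect curves relative to DMSO-treated wells.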
As to `C#Cc1c(F)ccc2cc(O)cc(-c3ccc4c(N5CCC(N)C5)nc(OC[C@@]56CCCN5C[C@H](F)C6)nc4c3F)c12` (stereo partly drawn) [Example 116, 4-(4-(3-aminopyrrolidin-1-yl)-8-fluoro-2-(((2R, 7aS)-2-fluorotetrahydro-1H-pyrrolizin-7a(5H)-yl)methoxy)quinazolin-7-yl)-5-ethynyl-6-fluoronaphthalen-2-ol], the IC50 (as a rule, the concentration needed to halve the response being measured) was > 2500 nM.

Consider `C#Cc1c(F)ccc2cc(O)cc(-c3ccc4c(N5C[C@H]6CC[C@@H](C5)N6)nc(OC[C@]56CCCN5[C@@H](COC(=O)N(C)C)CC6)nc4c3)c12` [Example 153, ((3R,7aR)-7a-(((4-((1R, 5S)-3,8-diazabicyclo [3.2.1]octan-3-yl)-7-(8-ethynyl-7-fluoro-3-hydroxynaphthalen-1-yl)quinazolin-2-yl)oxy)methyl)hexahydro-1H-pyrrolizin-3-yl) methyl dimethylcarbamate], for which the IC50 was 190 nM.

Staying with this experiment, now noted: Homo sapiens, AGS, 72 h, AGS cells; MTT/MTS; 3 days of drug treatment; read-out: AGS IC50.
With `C#Cc1c(F)ccc2cc(O)cc(-c3ccc4c(N5CCC6(CC5)CO[C@@H](C)[C@H]6N)nc(OC[C@@]56CCCN5C[C@H](F)C6)nc4c3F)c12` [Example 114, 4-(4-((3S,4S)-4-amino-3-methyl-2-oxa-8-azaspiro[4.5]decan-8-yl)-8-fluoro-2-(((2R, 7aS)-2-fluorotetrahydro-1H-pyrrolizin-7a(5H)-yl)methoxy)quinazolin-7-yl)-5-ethynyl-6-fluoronaphthalen-2-ol], the IC50 was > 2500 nM. For the molecule `CCc1c(F)ccc2cc(O)cc(-c3ccc4c(N5CC6CCC(C5)[S+]6[O-])nc(OC[C@@]56CCCN5C[C@H](F)C6)nc4c3F)c12` (stereo partly drawn) [Example 162, (1R,5S,8R)-3-(7-(8-ethyl-7-fluoro-3-hydroxynaphthalen-1-yl)-8-fluoro-2-(((2R,7aS)-2-fluorotetrahydro-1H-pyrrolizin-7a(5H)-yl)methoxy)quinazolin-4-yl)-8-thia-3-azabicyclo[3.2.1]octane 8-oxide], the IC50 is > 2500 nM.

With `CCc1c(F)ccc2cc(O)cc(-c3ccc4c(N5C[C@H]6CC[C@@H](C5)N6)c(C#N)c(OC[C@@]56CCCN5C[C@H](F)C6)nc4c3)c12` [Example 172, 4-((1R,5S)-3,8-diazabicyclo[3.2.1]octan-3-yl)-7-(8-ethyl-7-fluoro-3-hydroxynaphthalen-1-yl)-2-(((2R,7aS)-2-fluorotetrahydro-1H-pyrrolizin-7a(5H)-yl)methoxy)quinoline-3-carbonitrile], the IC50 turned out to be 1230 nM. `C#Cc1c(F)ccc2cc(O)cc(-c3ncc4c(N5CC6(CNC6)C5)nc(OC[C@@]56CCCN5C[C@H](F)C6)nc4c3F)c12` [Example 70, 5-ethynyl-6-fluoro-4-(8-fluoro-2-(((2R, 7aS)-2-fluorotetrahydro-1H-pyrrolizin-7a(5H)-yl)methoxy)-4-(2,6-diazaspiro[3.3]heptan-2-yl)pyrido[4,3-d]pyrimidin-7-yl)naphthalen-2-ol]: the IC50 was > 2500 nM. On the same count and under the same terms, to `CCc1c(F)ccc2cc(O)cc(-c3ccc4c(N5C[C@H]6CC[C@@H](C5)N6)nc(OCC5(CN6CCCC6)CC5)nc4c3F)c12` [Example 100, 4-(4-((1R,5S)-3,8-diazabicyclo[3.2.1]octan-3-yl)-8-fluoro-2-((1-(pyrrolidin-1-ylmethyl)cyclopropyl)methoxy)quinazolin-7-yl)-5-ethyl-6-fluoronaphthalen-2-ol] belongs 21 nM. Still for that read-out and setting: to `C#CC1CCCc2cc(O)cc(-c3ncc4c(N5C[C@H]6CC[C@@H](C5)N6)nc(OC[C@@]56CCCN5C[C@H](F)C6)nc4c3F)c21` (stereo partly drawn) [Example 248, 4-(4-((1R,5S)-3,8-diazabicyclo[3.2.1]octan-3-yl)-8-fluoro-2-(((2R,7aS)-2-fluorotetrahydro-1H-pyrrolizin-7a(5H)-yl)methoxy)pyrido[4,3-d]pyrimidin-7-yl)-5-ethynyl-5,6,7,8-tetrahydronaphthalen-2-ol] belongs 6.7 nM. Regarding `O=C1CCCc2cc(O)cc(-c3ccc4c(N5C[C@H]6CC[C@@H](C5)N6)nc(OC[C@@]56CCCN5C[C@H](F)C6)nc4c3F)c21` [Example 296, 8-(4-((1R,5S)-3,8-diazabicyclo[3.2.1]octan-3-yl)-8-fluoro-2-(((2R,7aS)-2-fluorotetrahydro-1H-pyrrolizin-7a(5H)-yl)methoxy)quinazolin-7-yl)-6-hydroxy-3,4-dihydronaphthalen-1(2H)-one], the IC50 was > 2500 nM. Same read-out and setting: in the case of `[O-][S+]1CCc2cc(O)cc(-c3ncc4c(N5C[C@H]6CC[C@@H](C5)N6)nc(OC[C@@]56CCCN5C[C@H](F)C6)nc4c3F)c21` (stereo partly drawn) [Example 252, 7-(4-((1R,5S)-3,8-diazabicyclo[3.2.1]octan-3-yl)-8-fluoro-2-(((2R,7aS)-2-fluorotetrahydro-1H-pyrrolizin-7a(5H)-yl)methoxy)pyrido[4,3-d]pyrimidin-7-yl)-5-hydroxy-2,3-dihydrobenzo[b]thiophene 1-oxide] it was > 2500 nM; in that of `CC1(C)CCc2cc(O)cc(-c3ncc4c(N5C[C@H]6CC[C@@H](C5)N6)nc(OC[C@@]56CCCN5C[C@H](F)C6)nc4c3F)c21` [Example 299, 7-(4-((1R,5S)-3,8-diazabicyclo[3.2.1]octan-3-yl)-8-fluoro-2-(((2R,7aS)-2-fluorotetrahydro-1H-pyrrolizin-7a(5H)-yl)methoxy)pyrido[4,3-d]pyrimidin-7-yl)-1,1-dimethyl-2,3-dihydro-1H-inden-5-ol], 945 nM.

On to `Oc1ccc2c(C#Cc3ncc4c(N5C[C@H]6CC[C@@H](C5)N6)nc(OC[C@@]56CCCN5C[C@H](F)C6)nc4c3F)c(F)ccc2c1` [Example 368, 5-((4-((1R,5S)-3,8-diazabicyclo[3.2.1]octan-3-yl)-8-fluoro-2-(((2R,7aS)-2-fluorotetrahydro-1H-pyrrolizin-7a(5H)-yl)methoxy)pyrido[4,3-d]pyrimidin-7-yl)ethynyl)-6-fluoronaphthalen-2-ol], for which the IC50 was 55 nM. On the same count and under the same terms, in the case of `CSc1nccc2cc(O)cc(-c3ncc4c(N5C[C@H]6CC[C@@H](C5)N6)nc(OC[C@@]56CCCN5C[C@H](F)C6)nc4c3F)c12` [Example 341, 8-(4-((1R,5S)-3,8-diazabicyclo[3.2.1]octan-3-yl)-8-fluoro-2-(((2R,7aS)-2-fluorotetrahydro-1H-pyrrolizin-7a(5H)-yl)methoxy)pyrido[4,3-d]pyrimidin-7-yl)-1-(methylthio)isoquinolin-6-ol] it was 25 nM. `CC1CCCc2cc(O)cc(-c3ccc4c(NCC5(N(C)C)CCC5)nc(OC[C@@]56CCCN5C[C@H](F)C6)nc4c3F)c21` (stereo partly drawn) [Example 427, 4-(4-(((1-(dimethylamino)cyclobutyl)methyl)amino)-8-fluoro-2-(((2R,7aS)-2-fluorotetrahydro-1H-pyrrolizin-7a(5H)-yl)methoxy)quinazolin-7-yl)-5-methyl-5,6,7,8-tetrahydronaphthalen-2-ol]: the IC50 is 55 nM. With `Oc1cc(-c2ncc3c(C4C[C@H]5CC[C@@H](C4)N5)nc(OC[C@@]45CCCN4C[C@H](F)C5)nc3c2F)c2c(F)cccc2c1` (stereo partly drawn) [Example 82, 4-(4-((1R,5S)-8-azabicyclo[3.2.1]octan-3-yl)-8-fluoro-2-(((2R,7aS)-2-fluorotetrahydro-1H-pyrrolizin-7a(5H)-yl)methoxy)pyrido [4,3-d]pyrimidin-7-yl)-5-fluoronaphthalen-2-ol], the IC50 is > 2500 nM.
